ChEMBL document CHEMBL1135507, “II. Synthesis and biological evaluation of some bioisosteres and congeners of the antitumor agent, 2-(4-[(7-chloro-2-quinoxalinyl)oxy]phenoxy)propionic acid (XK469)” (2002)
The source made the active and inactive calls. No cut-off for these calls is given here.

Legend:
[1] = In vitro cytotoxicity against resistant mammary adenocarcinoma-17/adr(M17/adr) after the administration of 6 injections (iv) at a dose of 450 (mg/kg); format: functional, Mus musculus
[2] = […] cytotoxicity against resistant mammary adenocarcinoma-17/adr(M17/adr) after the administration of 6 injections (iv) at a dose of 450 (mg/kg) in 5 Mice; format: functional, Mus musculus
[3] = In vitro cytotoxicity against resistant mammary adenocarcinoma-17/adr(M17/adr) after the administration of 6 injections (iv) at a dose of 352(mg/kg); format: functional, Mus musculus
[4] = In vitro cytotoxicity against resistant mammary adenocarcinoma-17/adr(M17/adr) after the administration of 6 injections (iv) at a dose of 352(mg/kg) in 5 Mice; format: functional, Mus musculus
[5] = In vitro cytotoxicity against resistant mammary adenocarcinoma-17/adr(M17/adr) after the administration of 7 injections (iv) at a dose of 324(mg/kg); format: functional, Mus musculus
[6] = In vitro cytotoxicity against resistant mammary adenocarcinoma-17/adr(M17/adr) after the administration of 7 injections (iv) at a dose of 324(mg/kg) in 5 Mice; format: functional, Mus musculus
[7] = […] cytotoxicity against resistant mammary adenocarcinoma-17/adr(M17/adr) after the administration (iv) of 13 injections at a dose of 364(mg/kg) in 5 Mice; format: functional, Mus musculus
[8] = […] cytotoxicity against resistant mammary adenocarcinoma-17/adr(M17/adr) after the administration (iv) of 13 injections at a dose of 364(mg/kg); format: functional, Mus musculus
[9] = system: Mus musculus; experiment: […] cytotoxicity against advanced stage pancreatic ductal adenocarcinoma 03 after the administration of 7 injections (iv) at a dose of 560(mg/kg) in 7 Mice; format: functional
[10] = system: Mus musculus; experiment: […] cytotoxicity against advanced stage pancreatic ductal adenocarcinoma 03 after the administration of 7 injections (iv) at a dose of 560(mg/kg); format: functional
[11] = system: Mus musculus; experiment: […] cytotoxicity against advanced stage pancreatic ductal adenocarcinoma 03 after the administration of 5 injections (iv) at a dose of 450 (mg/kg) in 5 mice; format: functional
[12] = system: Mus musculus; experiment: […] cytotoxicity against advanced stage pancreatic ductal adenocarcinoma 03 after the administration of 5 injections (iv) at a dose of 450 (mg/kg) in 5 Mice; format: functional
[13] = system: Mus musculus; experiment: […] cytotoxicity against advanced stage pancreatic ductal adenocarcinoma 03 after the administration of 5 injections (iv) at a dose of 450 (mg/kg); format: functional
[14] = In vitro cytotoxicity against resistant mammary adenocarcinoma-17/adr(M17/adr) after the administration of 6 injections (iv) at a dose of 300 mg/kg; format: functional, Mus musculus
[15] = system: Mus musculus; experiment: […] cytotoxicity against advanced stage pancreatic ductal adenocarcinoma 03 after the administration of 7 injections (iv) at a dose of 336(mg/kg) in 5 Mice; format: functional
[16] = system: Mus musculus; experiment: […] cytotoxicity against advanced stage pancreatic ductal adenocarcinoma 03 after the administration of 7 injections (iv) at a dose of 336(mg/kg); format: functional
[17] = In vitro cytotoxicity against resistant mammary adenocarcinoma-17/adr(M17/adr) after the administration of 6 injections (iv) at a dose of 300 mg/kg in 5 Mice; format: functional, Mus musculus
[18] = In vitro cytotoxicity against resistant mammary adenocarcinoma-17/adr(M17/adr) after the administration of 7 injections (iv) at a dose of 455 (mg/kg); format: functional, Mus musculus
[19] = system: Mus musculus; experiment: […] cytotoxicity against resistant mammary adenocarcinoma-17/adr(M17/adr) after the administration of 7 injections (iv) at a dose of 455 (mg/kg); Activity value is none; format: functional, organism-based
[20] = In vitro cytotoxicity against resistant mammary adenocarcinoma-17/adr(M17/adr) after the administration of 7 injections (iv) at a dose of 455 (mg/kg) in 3 Mice; format: functional, Mus musculus
[21] = In vitro cytotoxicity against resistant mammary adenocarcinoma-17/adr(M17/adr) after the administration of 7 injections (iv) at a dose of 370 (mg/kg); format: functional, Mus musculus
[22] = In vitro cytotoxicity against resistant mammary adenocarcinoma-17/adr(M17/adr) after the administration of 7 injections (iv) at a dose of 370 (mg/kg) in 5 Mice; format: functional, Mus musculus
[23] = system: Mus musculus; experiment: […] cytotoxicity against advanced stage pancreatic ductal adenocarcinoma 03 after the administration of 6 injections (iv) at a dose of 480 (mg/kg) in 4 Mice; format: functional
[24] = system: Mus musculus; experiment: […] cytotoxicity against advanced stage pancreatic ductal adenocarcinoma 03 after the administration of 6 injections (iv) at a dose of 480 (mg/kg); format: functional
[25] = In vitro cytotoxicity against resistant mammary adenocarcinoma-17/adr(M17/adr) after the administration of 7 injections (iv) at a dose of 462 (mg/kg) in 4 Mice; format: functional, Mus musculus
[26] = […] cytotoxicity against resistant mammary adenocarcinoma-17/adr(M17/adr) after the administration of 7 injections (iv) at a dose of 462 (mg/kg); format: functional, Mus musculus
[27] = system: Mus musculus; experiment: […] cytotoxicity against resistant mammary adenocarcinoma-17/adr(M17/adr) after the administration of 7 injections (iv) at a dose of 462 (mg/kg);Activity value is none; format: functional, organism-based

In the case of `COc1ccc2ccc(Oc3ccc(OC(C)C(=O)O)cc3)nc2c1` (stereo not drawn), the Activity rating [1] is reported as >2.8, the “Body weight loss at nadir” value [1] is reported as -5% and the “Log tumor cell kill” value [1] is reported as 3. It also gave a T/C [1] of 0%, a Cures [2] of 0 and a Drug deaths [2] of 0.
In the case of `CC(Oc1ccc(Oc2ccc3ccc(Br)cc3n2)cc1)C(=O)O` (racemic), the Activity rating [3] is reported as >2.8, the “Body weight loss at nadir” value [3] is reported as -5.5% and the “Log tumor cell kill” value [3] is reported as 4.2. For the same molecule, the T/C [3] was 0%, the Cures [4] was 0 and the Drug deaths [4] was 0.
In the case of `CC(Oc1ccc(Oc2ccc3ccc(F)cc3n2)cc1)C(=O)O` (racemic), the Activity rating [5] is reported as 1.9, the “Body weight loss at nadir” value [5] is reported as -1.6% and the “Log tumor cell kill” value [5] is reported as 1.5. For the same molecule, the T/C [5] was 14%, the Cures [6] was 0 and the Drug deaths [6] was 0.
With `CC(Oc1ccc(Oc2cnc3ccc(Cl)cc3n2)cc1)C(=O)O` (racemic) the Cures [7] was 0, the Drug deaths [7] was 0 and the Activity rating [8] was >2.8. The “Body weight loss at nadir” value [8] was 0%, the “Log tumor cell kill” value [8] was 2.82 and the T/C [8] was 10.3%.
In the case of `CC(Oc1ccc(Oc2ccc3ccc(Cl)cc3n2)cc1)C(=O)O` (stereo not drawn), the Cures [9] is reported as 0, the Drug deaths [9] is reported as 0 and the Activity rating [10] is reported as 2.8. The “Body weight loss at nadir” value [10] was 3.7%, the “Log tumor cell kill” value [10] was 2.3 and the T/C [10] was 14.1%.
In the case of `COc1ccc2ccc(Oc3ccc(OC(C)C(=O)O)cc3)nc2c1` (racemic), the Cures [11] is reported as 0, the Drug deaths [12] is reported as 0 and the Activity rating [13] is reported as 1.2. The “Body weight loss at nadir” value [13] was -2%, the “Log tumor cell kill” value [13] was 0.8 and the T/C [13] was 45%.
In the case of `CC(Oc1ccc(Oc2ccc3ccc(Cl)cc3n2)cc1)C(=O)O` (racemic), the Activity rating [14] is reported as >2.8, the “Body weight loss at nadir” value [14] is reported as -10.6% and the “Log tumor cell kill” value [14] is reported as 3.8. For the same molecule, the T/C [14] was 0%, the Cures [15] was 0 and the Drug deaths [15] was 0. The Activity rating [16] was 2.8, the “Body weight loss at nadir” value [16] was -8.9% and the “Log tumor cell kill” value [16] was 2.6. The T/C [16] was 0%, the Cures [17] was 0 and the Drug deaths [17] was 0.
For `CC(Oc1ccc(Oc2nc3ccc(Cl)cc3o2)cc1)C(=O)O` (racemic) [FENOXAPROP], the Activity rating [18] was <0.7, the “Body weight loss at nadir” value [18] was 0% and the T/C [18] was >100%. The “Log tumor cell kill” value [19] was “inactive”, the Cures [20] was 0 and the Drug deaths [20] was 0.
With `CC(Oc1ccc(Oc2ccc3ccc(I)cc3n2)cc1)C(=O)O` (racemic) the Activity rating [21] was 1.9, the “Body weight loss at nadir” value [21] was -4% and the “Log tumor cell kill” value [21] was 2.1. The T/C [21] was 2%, the Cures [22] was 0 and the Drug deaths [22] was 0.
With `CC(Oc1ccc(Oc2ccc3ccc(Br)cc3n2)cc1)C(=O)O` (stereo not drawn) the Cures [23] was 0, the Drug deaths [23] was 0 and the Activity rating [24] was >2.8. The “Body weight loss at nadir” value [24] was 5.9%, the “Log tumor cell kill” value [24] was 3.1 and the T/C [24] was 2.8%.
With `CC(Oc1ccc(Oc2cnc3ccc(Cl)cc3n2)cc1)C(=O)O` (stereo not drawn) the Cures [9] was 0, the Drug deaths [9] was 0 and the Activity rating [10] was 2.8. The “Body weight loss at nadir” value [10] was 2.5%, the “Log tumor cell kill” value [10] was 2 and the T/C [10] was 24.5%.
With `CC(Oc1ccc(Oc2nc3cc(Cl)ccc3o2)cc1)C(=O)O` (racemic) the Cures [25] was 0, the Drug deaths [25] was 0 and the Activity rating [26] was <0.7. The “Body weight loss at nadir” value [26] was -2.3%, the T/C [26] was >100% and the “Log tumor cell kill” value [27] was “inactive”.
